In the supplement of paper PMC11451515:

Test system: NOMO1
Experiment: cell viability relative to DMSO control; higher = less cytotoxic
Settings: 48 h
Outline: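 Library compounds in DMSO were pin-dosed in an 11-point threefold series (47 μM to 0.79 nM) onto leukemia cells in 1536-well plates (5 μl). Plates held 500 cells/well of NOMO1 or SEM or 1000 cells/well of P12-Ichikawa, each adapted for at least four passages in each medium. Luminescence was read with CellTiter-Glo One after 48 h at 37°C. Viability means the per-plate percentage relative to DMSO wells, using cell-free wells as background.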

[1] = HPLM + 10% dialyzed FBS, 0.000781 µM
[2] = HPLM + 10% dialyzed FBS, 0.00234 µM
[3] = HPLM + 10% dialyzed FBS, 0.00702 µM
[4] = HPLM + 10% dialyzed FBS, 0.0211 µM
[5] = HPLM + 10% dialyzed FBS, 0.0632 µM
[6] = HPLM + 10% dialyzed FBS, 0.19 µM
[7] = HPLM + 10% dialyzed FBS, 0.569 µM
[8] = HPLM + 10% dialyzed FBS, 1.71 µM
[9] = HPLM + 10% dialyzed FBS, 5.12 µM
[10] = HPLM + 10% dialyzed FBS, 15.4 µM
[11] = HPLM + 10% dialyzed FBS, 46.1 µM
[12] = RPMI 5 mM glucose + 10% FBS, 0.000781 µM
[13] = RPMI 5 mM glucose + 10% FBS, 0.00234 µM
[14] = RPMI 5 mM glucose + 10% FBS, 0.00702 µM
[15] = RPMI 5 mM glucose + 10% FBS, 0.0211 µM
[16] = RPMI 5 mM glucose + 10% FBS, 0.0632 µM
[17] = RPMI 5 mM glucose + 10% FBS, 0.19 µM
[18] = RPMI 5 mM glucose + 10% FBS, 0.569 µM
[19] = RPMI 5 mM glucose + 10% FBS, 1.71 µM
[20] = RPMI 5 mM glucose + 10% FBS, 5.12 µM
[21] = RPMI 5 mM glucose + 10% FBS, 15.4 µM
[22] = RPMI 5 mM glucose + 10% FBS, 46.1 µM
[23] = RPMI 5 mM glucose + 10% dialyzed FBS, 0.000781 µM
[24] = RPMI 5 mM glucose + 10% dialyzed FBS, 0.00234 µM
[25] = RPMI 5 mM glucose + 10% dialyzed FBS, 0.00702 µM
[26] = RPMI 5 mM glucose + 10% dialyzed FBS, 0.0211 µM
[27] = RPMI 5 mM glucose + 10% dialyzed FBS, 0.0632 µM
[28] = RPMI 5 mM glucose + 10% dialyzed FBS, 0.19 µM
[29] = RPMI 5 mM glucose + 10% dialyzed FBS, 0.569 µM
[30] = RPMI 5 mM glucose + 10% dialyzed FBS, 1.71 µM
[31] = RPMI 5 mM glucose + 10% dialyzed FBS, 5.12 µM
[32] = RPMI 5 mM glucose + 10% dialyzed FBS, 15.4 µM
[33] = RPMI 5 mM glucose + 10% dialyzed FBS, 46.1 µM

Compound	cell viability [1]	cell viability [2]	cell viability [3]	cell viability [4]	cell viability [5]	cell viability [6]	cell viability [7]	cell viability [8]	cell viability [9]	cell viability [10]	cell viability [11]	cell viability [12]	cell viability [13]	cell viability [14]	cell viability [15]	cell viability [16]	cell viability [17]	cell viability [18]	cell viability [19]	cell viability [20]	cell viability [21]	cell viability [22]	cell viability [23]	cell viability [24]	cell viability [25]	cell viability [26]	cell viability [27]	cell viability [28]	cell viability [29]	cell viability [30]	cell viability [31]	cell viability [32]	cell viability [33]
COC1=C(OCCCN2CCOCC2)C=CC\3=C1/N=C(/NC(=O)C4=CN=C(N)N=C4)N5CC/N=C35	101%	111%	111%	89.4%	99.4%	73.2%	55.5%	59.4%	44.6%	42.2%	39.8%	83.3%	90.5%	84.4%	78.9%	83.3%	80.5%	71.9%	59.6%	52%	49.3%	46.1%	94.7%	105%	88.9%	92.7%	77.8%	63.5%	59.6%	54.1%	49.6%	49.1%	34.6%
Cc1ccccc1C(=O)Nc1ccc(C(=O)N2CCCC(O)c3cc(Cl)ccc32)c(C)c1 (stereo not drawn)	129%	125%	123%	141%	139%	121%	143%	163%	147%	125%	137%	–	–	–	–	–	–	–	–	–	–	–	–	–	–	–	–	–	–	–	–	–	–
CCOC(=O)C(C)OC1=CC=CC2=C1\C=C/N(CC(=O)NC3=CC=C4OCCOC4=C3)C2=O (stereo not drawn)	82.7%	96.6%	94.4%	97.2%	90.8%	98.5%	99.8%	94.7%	80.5%	81.8%	97.2%	81.7%	89.4%	101%	96.8%	91%	88.8%	96.7%	87.8%	89.4%	89.5%	87.5%	92.3%	89.8%	98.2%	92.2%	94.6%	92.3%	94.9%	88.8%	74.6%	91.9%	109%
Nc1c2c(nc3ccccc13)CCCC2	129%	105%	122%	125%	118%	100%	117%	31.8%	83.6%	35.5%	10.3%	113%	123%	115%	117%	108%	117%	115%	41.6%	98.3%	40.2%	8.53%	118%	105%	112%	119%	128%	111%	111%	67.9%	80.1%	51%	19.2%
CCCCCCCCCCCCCC(=O)N[C@H](CO)[C@H](O)c1ccc([N+](=O)[O-])cc1	92.5%	98.8%	99.1%	105%	105%	90.8%	108%	49.9%	16.8%	3.54%	2.02%	91.2%	82.8%	99.6%	90.2%	98.2%	91.3%	93%	51%	21.5%	3.33%	2.43%	83.2%	95%	95.7%	90.6%	92.2%	93%	94.1%	59.4%	23.2%	4.12%	2.14%
O=C(c1ccccc1)c1ccc2n1CCC2C(=O)O (stereo not drawn)	–	–	–	–	–	–	–	–	–	–	–	121%	113%	125%	130%	108%	122%	120%	110%	111%	115%	98.6%	107%	115%	110%	121%	125%	108%	116%	115%	97.4%	103%	107%
CN1\C=N/C2=CC=C(NC3=CC(=CC=C3C)NC(=O)C4=CC(=CC=C4)C(C)(C)C#N)C=C2C1=O	97.8%	107%	96.4%	105%	92.7%	94.6%	76.8%	76.3%	52.1%	52.7%	19.1%	93.6%	95.1%	111%	99%	89.6%	88.5%	81.2%	75.6%	47.7%	46.3%	28.1%	110%	92.4%	92.9%	101%	91.2%	79.2%	76.6%	65.5%	46.8%	46.3%	28.6%
